pKi: −log10 of the molar value. Where a SMILES comes first, the peptide text is derived from it. Where no end group is shown, it is not given here. [ ]: non-standard residue; d: D form. The star is where a group is joined. Myristoyl = CCCCCCCCCCCCCC(=O)*; Ac6c = NC1(C(=O)O)CCCCC1; Nle = CCCC[C@H](N)C(=O)O; Orn = NCCC[C@H](N)C(=O)O; X1 = CCCN1C(=O)CC(*)C1=O; Ac5c = NC1(C(=O)O)CCCC1; Aib = CC(C)(N)C(=O)O
Legend:
[1] = target: T1, human recombinant GIP receptor (Homo sapiens, UniProt P48546); assay: In vitro hGIP receptor binding assay ([125I]GIP displacement, CHO-K1 membranes)
T1 construct: expressed in transfected cells; host or cells: CHO-K1 clonal cells (membranes)
T1 sequence (P48546 22-466): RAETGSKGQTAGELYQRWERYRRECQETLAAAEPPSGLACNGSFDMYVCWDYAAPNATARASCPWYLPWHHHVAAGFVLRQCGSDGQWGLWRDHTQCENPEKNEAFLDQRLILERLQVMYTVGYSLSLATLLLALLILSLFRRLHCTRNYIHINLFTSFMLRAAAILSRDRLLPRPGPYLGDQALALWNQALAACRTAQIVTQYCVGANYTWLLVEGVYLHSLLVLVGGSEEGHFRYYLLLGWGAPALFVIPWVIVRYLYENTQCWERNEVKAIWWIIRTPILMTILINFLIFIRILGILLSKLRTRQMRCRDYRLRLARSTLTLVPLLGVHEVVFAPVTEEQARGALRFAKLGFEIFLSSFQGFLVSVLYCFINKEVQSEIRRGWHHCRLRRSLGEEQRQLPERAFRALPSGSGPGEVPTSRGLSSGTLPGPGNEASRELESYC
From the text: A. In Vitro hGIP Receptor Binding Assay

[2] = Human plasma half-life assay; format: in vitro ADME; conditions: human plasma, 37° C., LC-MS; read-out: Human Plasma T½ (converted)
[3] = Rat plasma half-life assay; format: in vitro ADME; conditions: rat plasma, 37° C., LC-MS; for half-life at 0.1 mg/ml: read-out: Rat Plasma T½ (converted)

Molecule | pKi [1] | half-life at 0.1 mg/ml [2] | half-life at 0.1 mg/ml [3] | half-life [2] | half-life ([3]; read-out: Rat Plasma T½)
CC[C@H](C)[C@H](NC(=O)[C@H](CO)NC(=O)[C@H](Cc1ccc(O)cc1)NC(=O)[C@H](CC(=O)O)NC(=O)C(C)(C)NC(=O)[C@@H](NC(=O)[C@H](Cc1ccccc1)NC(=O)[C@@H](NC(=O)CNC(=O)[C@H](CCC(=O)O)NC(=O)C(C)(C)NC(=O)[C@@H](N)Cc1ccc(O)cc1)[C@@H](C)O)[C@@H](C)CC)C(=O)N[C@@H](C)C(=O)N[C@@H](CCSC)C(=O)N[C@@H](CC(=O)O)C(=O)N[C@@H](CCCCN)C(=O)N[C@H](C(=O)N[C@@H](Cc1c[nH]cn1)C(=O)N[C@@H](CCC(N)=O)C(=O)N[C@@H](CCC(N)=O)C(=O)N[C@@H](CC(=O)O)C(=O)N[C@@H](Cc1ccccc1)C(=O)N[C@H](C(=O)N[C@@H](CC(N)=O)C(=O)N[C@@H](Cc1c[nH]c2ccccc12)C(=O)N[C@@H](CC(C)C)C(=O)N[C@@H](CC(C)C)C(=O)N[C@@H](C)C(=O)N[C@@H](CCC(N)=O)C(=O)N[C@@H](CCCCN)C(N)=O)C(C)C)[C@@H](C)CC [Example 17, (Aib^2, 8)hGIP(1-30)-NH2] (H-Y[Aib]EGTFI[Aib]DYSIAMDKIHQQDFVNWLLAQK-NH2; N-terminus assumed) | 7.80 | 17.4 h | 55 h |  | 
CC[C@H](C)[C@H](NC(=O)[C@H](CCCCN)NC(=O)[C@H](CC(=O)O)NC(=O)[C@H](CCSC)NC(=O)[C@H](C)NC(=O)[C@@H](NC(=O)C1(NC(=O)[C@H](Cc2ccc(O)cc2)NC(=O)[C@H](CC(=O)O)NC(=O)[C@H](CO)NC(=O)[C@@H](NC(=O)[C@H](Cc2ccccc2)NC(=O)[C@@H](NC(=O)CNC(=O)[C@@H]2CCCN2C(=O)[C@H](C)NC(=O)[C@@H](N)Cc2ccc(O)cc2)[C@@H](C)O)[C@@H](C)CC)CCCC1)[C@@H](C)CC)C(=O)N[C@@H](Cc1c[nH]cn1)C(=O)N[C@@H](CCC(N)=O)C(=O)N[C@@H](CCC(N)=O)C(=O)N[C@@H](CC(=O)O)C(=O)N[C@@H](Cc1ccccc1)C(=O)N[C@H](C(=O)N[C@@H](CC(N)=O)C(=O)N[C@@H](Cc1c[nH]c2ccccc12)C(=O)N[C@@H](CC(C)C)C(=O)N[C@@H](CC(C)C)C(=O)N[C@@H](C)C(=O)N[C@@H](CCC(N)=O)C(=O)N[C@@H](CCCCN)C(N)=O)C(C)C [Example 98, (Pro^3, A5c^11)hGIP(1-30)-NH2] (H-YAPGTFISDY[Ac5c]IAMDKIHQQDFVNWLLAQK-NH2; N-terminus assumed) | 7.18 |  |  |  | 
CC[C@H](C)[C@H](NC(=O)[C@H](CCCCN)NC(=O)[C@H](CC(=O)O)NC(=O)[C@H](CCSC)NC(=O)[C@H](C)NC(=O)[C@@H](NC(=O)C1(NC(=O)[C@H](Cc2ccc(O)cc2)NC(=O)[C@H](CC(=O)O)NC(=O)[C@H](CO)NC(=O)[C@@H](NC(=O)[C@H](Cc2ccccc2)NC(=O)[C@@H](NC(=O)CNC(=O)[C@H](CCC(=O)O)NC(=O)[C@@H](C)NC(=O)[C@@H](N)Cc2ccc(O)cc2)[C@@H](C)O)[C@@H](C)CC)CCCC1)[C@@H](C)CC)C(=O)N[C@@H](Cc1c[nH]cn1)C(=O)N[C@@H](CCC(N)=O)C(=O)N[C@@H](CCC(N)=O)C(=O)N[C@@H](CC(=O)O)C(=O)N[C@@H](Cc1ccccc1)C(=O)N[C@H](C(=O)N[C@@H](CC(N)=O)C(=O)N[C@@H](Cc1c[nH]c2ccccc12)C(=O)N[C@@H](CC(C)C)C(=O)N[C@@H](CC(C)C)C(=O)N[C@@H](C)C(=O)N[C@@H](CCC(N)=O)C(=O)N[C@@H](CCCCN)C(=O)N[C@@H](Cc1c[nH]cn1)C(N)=O)C(C)C [Example 122, (D-Ala^2, A5c^11, His^31)hGIP(1-31)-NH2] (H-Y[dA]EGTFISDY[Ac5c]IAMDKIHQQDFVNWLLAQKH-NH2; N-terminus assumed) | 9.06 |  |  |  | 
Y[Aib]EGTF[Ac6c]SDYSIAMDKIHQQDFVNWLLAQKC(X1)KKNDWKHNITQ-OH [Example 90, [Aib^2, A6c^7, Cys(Psu)^31]hGIP(1-42)-OH] |  | 11.3 h | 4.8 h |  | 
Y[Aib]EGTF[Ac6c]SDYSIAMDKIHQQDFVNWLLAQKGKKC(X1)DWKHNITQ-OH [Example 86, [Aib^2, A6c^7, Cys(Psu)^34]hGIP(1-42)-OH] |  | 4.2 h | 7 h |  | 
Y[Aib]EGTF[Ac6c]SDYSIAMDKIHQQDFVNWLLAQKGKKNC(X1)WKHNITQ-OH [Example 85, [Aib^2, A6c^7, Cys(Psu)^35]hGIP(1-42)-OH] |  | 7.3 h | 3.5 h |  | 
Y[Aib]EGTF[Ac6c]SDYSIAMDKIHQQDFVNWLLAQKGKKNDC(X1)KHNITQ-OH [Example 81, [Aib^2, A6c^7, Cys(Psu)^36]hGIP(1-42)-OH] |  | 8.2 h | 6.1 h |  | 
Y[Aib]EGTF[Ac6c]SDYSIAMDKIHQQDFVNWLLAQKGKKNDWKC(X1)NITQ-OH [Example 80, [Aib^2, A6c^7, Cys(Psu)^38]hGIP(1-42)-OH] |  | > 54 h | 5.5 h |  | 
Y[Aib]EGTF[Ac6c]SDYSIAMDKIHQQDFVNWLLAQKGKKNDWKHNC(X1)TQ-OH [Example 78, [Aib^2, A6c^7, Cys(Psu)^40]hGIP(1-42)-OH] |  | 10.1 h | 11.2 h |  | 
Y[Aib]EGTF[Ac6c]SDYSIAMDKIHQQDFVNWLLAQK[Aib]KKNDWKHNITQ-OH [Example 22, (Aib^2, 31, A6c^7)hGIP(1-42)-OH] |  | > 48 h | 14.2 h |  | 
Y[Aib]EGTF[Ac6c]SDYSIA[Nle]DKIHQQDFVNWLLAQKGKKNDWKHNITQ-OH [Example 55, (Aib^2, A6c^7, Nle^14)hGIP(1-42)-OH] |  | 8.8 h | 11.7 h |  | 
Y[Aib]EGTF[Ac6c]SDYSIA[Nle]DKIHQQDFVNWLLAQKGKKNDWKHNI[Ac6c]Q-OH [Example 29, (Aib^2, A6c^7, 41, Nle^14)hGIP(1-42)-OH] |  | > 48 h | 7.3 h |  | 
Y[Aib]EGTF[Ac6c]SDYSIA[Nle]DKIHQQDFVNWLLAQKGKKNDWKHNI[Aib]Q-OH [Example 25, (Aib^2, 41, A6c^7, Nle^14)hGIP(1-42)-OH] |  | > 48 h | 8.4 h |  | 
Y[Aib]EGTF[Ac6c]SDYSIA[Nle]DKIHQQDFVNWLLAQKGKKNDWKHN[Ac6c]TQ-OH [Example 28, (Aib^2, A6c^7, 40, Nle^14)hGIP(1-42)-OH] |  | > 48 h | 11.6 h |  | 
Y[Aib]EGTF[Ac6c]SDYSIA[Nle]DKIHQQDFVNWLLAQK[Aib]KKNDWKHNITQ-OH [Example 24, (Aib^2, 31, A6c^7, Nle^14)hGIP(1-42)-OH] |  | > 48 h | 24.8 h |  | 
Y[Aib]EGTF[Ac6c]SDYSIA[Nle]DKIHQQDFVNWLL[Aib]QKGKKNDWKHNITQ-OH [Example 30, (Aib^2, 28, A6c^7, Nle^14)hGIP(1-42)-OH] |  | > 48 h | 13.4 h |  | 
Y[Aib]EGTF[Ac6c]SDYSIA[Nle]DKIHQQDFVNWL[Ac6c]AQKGKKNDWKHNITQ-OH [Example 27, (Aib^2, A6c^7, 27, Nle^14)hGIP(1-42)-OH] |  | > 48 h | 9.3 h |  | 
Y[Aib]EGTF[Ac6c]SDYSIA[Nle]DK[Ac6c]HQQDFVNWLLAQKGKKNDWKHNITQ-OH [Example 37, (Aib^2, A6c^7, 17, Nle^14)hGIP(1-42)-OH] |  | > 48 h | 14 h |  | 
Y[Aib]EGTF[Aib]SDYSIAMDKIHQQDFVNWLLAQKGKKNDWKHNITQ-OH [Example 3, (Aib^2, 7)hGIP(1-42)-OH] |  | > 48 h | 5.5 h |  | 
Y[Aib]EG[Ac5c]FISDYSIAMDKIHQQDFVNWLLAQKGKKNDWKHNITQ-OH [Example 5, (Aib^2, A5c^5)hGIP(1-42)-OH] |  | > 48 h | 6.1 h |  | 
Y[Aib]EG[Aib]FISDYSIAMDKIHQQDFVNWLLAQKGKKNDWKHNITQ-OH [Example 4, (Aib^2, 5)hGIP(1-42)-OH] |  | > 48 h | 4.8 h |  | 
Y[Aib]E[Aib]TFISDYSIAMDKIHQQDFVNWLLAQKGKKNDWKHNITQ-OH [Example 10, (Aib^2, 4)hGIP(1-42)-OH] |  | > 48 h | 4 h |  | 
Y[dA]EGTFISDY[Ac5c]IAMDKIHQQDFVNWLLAQKGKKNDWKHN[Ac5c]TQ-OH [Example 104, (D-Ala^2, A5c^11,40)hGIP(1-42)-OH] |  | 20.2 h | 14.8 h |  | 
[Orn](Myristoyl)AEGTF[Ac6c]SDYSIAMDKIHQQDFVNWLLAQKGKKNDWKHNITQ-OH [Example 103, [Orn^1(N—C(O)—(CH2)12—CH3), A6c^7]hGIP(1-42)-OH] |  |  |  | 6.8 h | > 72 h

Source: patent publication US9074014B2 (Ipsen Pharma S.A.S., priority 2008, dated 2015)
